Results taken from PMC11678869, “Functional Role of Odorant-Binding Proteins in Response to Sex Pheromone Component Z8-14:Ac in Grapholita molesta (Busck)” (Insects, 2024).
Like-named read-outs stand apart in the source and are kept apart here.

Assays:
GmolPBP2 mutant I113A = GmolPBP2 mutant I113A (Grapholita molesta, UniProt A0A059VC28, I138A); experiment: Fluorescence competitive binding assay, GmolPBP2 mutant
Description: (§1) The binding affinities of three rGmolPBPs and two rGmolGOBPs for Z8-14:Ac were determined using an F-2700 fluorescence spectrophotometer (Hitachi, Tokyo, Japan). First, we measured the dissociation constants (Kd) of the rGmolPBPs (or rGmolGOBPs) binding to 1−NPN. Each protein was diluted to 2 μM with 20 mM Tris-HCl buffer (pH 7.4); then, 2 mL of the protein solution was transferred to a quartz cuvette and titrated with 1 mM 1−NPN to a final concentration of 1–18 μM. As the doses of 1−NPN were increased, the increasing amplitude of the fluorescence intensity decreased, and finally, the binding of the protein to 1−NPN reached saturation. The Kd values were calculated using the nonlinear regression method and the Scatchard equation. Second, we measured the inhibitory constant (Ki) of Z8-14:Ac’s competitive binding with each rGmolPBP (or rGmolGOBP) from the protein/1−NPN complex. The initial fluorescence intensity values were measured after a 2 min reaction in 2 mL solution of 20 mM Tris-HCl (pH 7.4) containing 2 µM rGmolPBP (or rGmolGOBP) protein and 2 µM 1−NPN. Then, the solution was titrated with aliquots of 1 mM Z8-14:Ac to obtain final concentrations in the range of 1–14 µM, and the fluorescence intensity value of each reaction was recorded. The Ki values were calculated using the following equation: Ki = [IC50]/(1 + [1 − NPN]/Kd) where IC50 is the concentration of Z8-14:Ac when half of the initial fluorescence intensity value of the rGmolPBP (or GmolGOBP)/1−NPN complex is replaced, [1 − NPN] represents the concentration of free 1−NPN, and Kd is the dissociation constant of the rGmolPBP (or GmolGOBP)/1−NPN complex.
(§2) Five amino acids—Phe12, Leu68, Ile94, Arg109, and Ile113—were identified as having lower binding free energies for GmolPBP2 interaction with Z8-14:Ac. To assess their role in binding, these residues were individually mutated to alanine using site-directed mutagenesis. Primers for mutagenesis were designed following the protocols recommended by the Fast Mutagenesis System (TransGen Biotech, Beijing, China) (Table S1). These mutations were introduced into the pET-28a(+)–GmolPBP2 plasmid using a Fast Mutagenesis System kit ([…]) and site-directed mutagenesis primers generating the mutants F12A, L68A, I94A, R109A, and I113A, respectively. Each plasmid was verified by DNA sequencing to confirm the presence of the desired mutation. Expression and purification of the mutated proteins followed the same protocols used for the wild-type GmolPBP2. The binding affinities of the five mutants for Z8-14:Ac were determined via fluorescence competitive binding assays. An increase in Ki values for the mutants relative to the wild-type GmolPBP2 would indicate that the corresponding amino acid residues may be crucial for binding to Z8-14:Ac.

GmolPBP2 mutant F12A = GmolPBP2 mutant F12A (Grapholita molesta, UniProt A0A059VC28, F37A); experiment: as above
GmolPBP2 mutant F12A, sequence (A0A059VC28 entry or part of it F37A): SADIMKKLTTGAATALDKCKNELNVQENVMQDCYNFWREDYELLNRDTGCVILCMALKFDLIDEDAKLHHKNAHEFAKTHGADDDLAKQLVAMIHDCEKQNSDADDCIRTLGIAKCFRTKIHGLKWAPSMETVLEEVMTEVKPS
Description: as §1, §2

GmolPBP2 mutant R109A = GmolPBP2 mutant R109A (Grapholita molesta, UniProt A0A059VC28, R134A); experiment: as above
GmolPBP2 mutant R109A, sequence (A0A059VC28 entry or part of it R134A): as the sequence (A0A059VC28 entry or part of it F37A) above, with A12F, R109A counted along it
Description: as §1, §2

GmolPBP2 mutant L68A = GmolPBP2 mutant L68A (Grapholita molesta, UniProt A0A059VC28, L93A); experiment: as above
GmolPBP2 mutant L68A, sequence (A0A059VC28 entry or part of it L93A): as the sequence (A0A059VC28 entry or part of it F37A) above, with A12F, L68A counted along it
Description: as §1, §2

GmolPBP2 mutant I94A = GmolPBP2 mutant I94A (Grapholita molesta, UniProt A0A059VC28, I119A); experiment: as above
GmolPBP2 mutant I94A, sequence (A0A059VC28 entry or part of it I119A): as the sequence (A0A059VC28 entry or part of it F37A) above, with A12F, I94A counted along it
Description: as §1, §2

rGmolGOBP2 = rGmolGOBP2 (Grapholita molesta, UniProt H9XTU6); experiment: Fluorescence competitive binding assay with 1-NPN probe
rGmolGOBP2, sequence (H9XTU6 entry or part of it): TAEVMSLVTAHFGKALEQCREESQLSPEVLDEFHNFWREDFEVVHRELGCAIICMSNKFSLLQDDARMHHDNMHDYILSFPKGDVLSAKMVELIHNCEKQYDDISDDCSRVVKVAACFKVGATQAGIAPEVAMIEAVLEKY
Excerpt: (§3) Previous researchers have successfully expressed rGmolPBP1, rGmolPBP2, rGmolPBP3, rGmolGOBP1, and rGmolGOBP2 proteins using prokaryotic expression systems. In this article, the DNA sequences of these five GmolPBPs and GmolGOBPs, with the signal peptides removed and restriction sites on both ends, were inserted into the expression vector pET28a(+) linearized with the same restriction enzyme. These vectors were then transformed into Escherichia coli BL21(DE3) and induced by isopropyl-β-d-thiogalactoside (IPTG). Since all five recombinant proteins were expressed in inclusion bodies, they were denatured using 8 M urea and then renatured using a cysteine/cystine REDOX system. The reduced recombinant proteins were purified using an Ni-NTA His Bind Resin column (7Sea Pharmatech Co., Ltd., Shanghai, China). Non-target proteins were washed off with washing buffer (20 mM Tris-HCl (pH 7.4), 20 mM imidazole, 1 mM PMSF, and 250 mM NaCl), and then the target proteins were eluted with elution buffer (20 mM Tris-HCl (pH 7.4), 1 mM PMSF, and 250 mM NaCl) with an increasing concentration of imidazole (50, 100, and 200 mM). Five milliliters of eluents with high target protein content and low levels of contaminants were collected and placed in dialysis tubing (Coolaber, Beijing, China) with a molecular weight cut-off of 3.5 kDa to remove NaCl and imidazole. The purified soluble proteins were stored at −80 °C before use.
as §1

rGmolGOBP1 = rGmolGOBP1 (Grapholita molesta, UniProt H9XTU5); experiment: as above; conditions: for Ki: calculated from IC50 and Kd of 1-NPN
rGmolGOBP1, sequence (H9XTU5 entry or part of it): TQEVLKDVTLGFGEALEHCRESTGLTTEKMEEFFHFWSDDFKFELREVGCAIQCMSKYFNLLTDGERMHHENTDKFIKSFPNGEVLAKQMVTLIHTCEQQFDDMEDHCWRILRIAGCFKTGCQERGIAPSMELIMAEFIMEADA
Excerpt: as §3, §1

rGmolPBP3 = rGmolPBP3 (Grapholita molesta, UniProt A0A059VBP3); experiment: as above
rGmolPBP3, sequence (A0A059VBP3 entry or part of it): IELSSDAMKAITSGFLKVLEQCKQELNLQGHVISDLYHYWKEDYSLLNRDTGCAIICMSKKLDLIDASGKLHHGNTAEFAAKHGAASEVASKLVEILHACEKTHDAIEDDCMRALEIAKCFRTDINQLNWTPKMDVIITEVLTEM
Excerpt: as §3, §1

rGmolPBP1 = rGmolPBP1 (Grapholita molesta, UniProt A0A2R4SBD6); experiment: as above
rGmolPBP1, sequence (A0A2R4SBD6 entry or part of it): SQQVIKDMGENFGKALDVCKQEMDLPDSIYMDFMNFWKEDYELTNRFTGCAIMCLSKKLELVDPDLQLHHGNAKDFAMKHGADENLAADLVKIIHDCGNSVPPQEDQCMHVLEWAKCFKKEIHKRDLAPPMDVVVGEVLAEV
Excerpt: as §3, §1

rGmolPBP2 (wild-type) = rGmolPBP2 (wild-type) (Grapholita molesta, UniProt A0A059VC28); experiment: as above
rGmolPBP2 (wild-type), sequence (A0A059VC28 entry or part of it): as the sequence (A0A059VC28 entry or part of it F37A) above, with A12F counted along it
Excerpt: as §3, §1

[1] = 2 μM protein, 2 μM 1-NPN, pH 7.4, read-out: IC50 (displacement of 1-NPN)
[2] = calculated from IC50 and Kd of 1-NPN

GmolPBP2 mutant I113A, sequence (A0A059VC28 entry or part of it I138A): as the sequence (A0A059VC28 entry or part of it F37A) above, with A12F, I113A counted along it

SMILES: CCCCC/C=C\CCCCCCCOC(C)=O [Z8-14:Ac, (Z)-8-tetradecenyl acetate]
- IC50 (GmolPBP2 mutant I113A): 980 ± 38 nM
- Ki (GmolPBP2 mutant I113A): 520 ± 20 nM
- binding affinity relative to wild-type GmolPBP2 (GmolPBP2 mutant I113A; mutant I113A): binding affinities comparable to the wild-type
- IC50 (GmolPBP2 mutant F12A): > 14000 nM
- Ki (GmolPBP2 mutant F12A): > 14000 nM
- binding affinity relative to wild-type GmolPBP2 (GmolPBP2 mutant F12A; mutant F12A): lost its affinity
- IC50 (GmolPBP2 mutant R109A): 1260 ± 29 nM
- Ki (GmolPBP2 mutant R109A): 655 ± 15 nM
- binding affinity relative to wild-type GmolPBP2 (GmolPBP2 mutant R109A; mutant R109A): did not significantly affect the binding affinity
- IC50 (GmolPBP2 mutant L68A): 1130 ± 26 nM
- Ki (GmolPBP2 mutant L68A): 589 ± 7 nM
- binding affinity relative to wild-type GmolPBP2 (GmolPBP2 mutant L68A; mutant L68A): binding affinities comparable to the wild-type
- IC50 (GmolPBP2 mutant I94A): 1082 ± 8 nM
- Ki (GmolPBP2 mutant I94A): 564 ± 4 nM
- binding affinity relative to wild-type GmolPBP2 (GmolPBP2 mutant I94A; mutant I94A): binding affinities comparable to the wild-type
- IC50 (rGmolGOBP2; [1]): 3530 ± 220 nM
- Ki (rGmolGOBP2; [2]): 2860 ± 180 nM
- IC50 (rGmolGOBP1; [1]): > 14000 nM
- Ki (rGmolGOBP1): could not be calculated
- Ki (rGmolGOBP1; read-out: Ki): > 14000 nM
- IC50 (rGmolPBP3; [1]): 2780 ± 320 nM
- Ki (rGmolPBP3; [2]): 2560 ± 270 nM
- IC50 (rGmolPBP1; [1]): 2930 ± 70 nM
- Ki (rGmolPBP1; [2]): 1660 ± 40 nM
- IC50 (rGmolPBP2 (wild-type); [1]): 1260 ± 40 nM
- Ki (rGmolPBP2 (wild-type); [2]): 660 ± 20 nM
